Assay [1] concerns PC-12. The assay can be described thus: Protection against beta-amyloid (25 to 35) insult in rat PC12 cells assessed as viable cells after 24 hrs by MTT assay. The format is functional. The note with it: PC-12, 24 h, read-out: ED50 (the source's name).
For assay [2], the system named is PC-12. Description: Protection against beta-amyloid (1 to 42) insult in rat PC12 cells assessed as viable cells after 24 hrs by MTT assay. Conditions: PC-12, 24 h, read-out: ED50 (the source's name). Type of assay: functional. For orientation: Tetrazolium dyes change colour on reduction, which living cells bring about.

≈ marks a conversion by molar mass, not a printed value.

For the molecule `COc1cc(/C=C/C=C/C(=O)/C=C/c2ccc(O)c(OC)c2)ccc1O`, the EC50 in assay [1] and in assay [2] was over 50 µg/mL in each case.

`COc1cc(/C=C/C(=O)CC(=O)CC(O)c2ccc(O)c(OC)c2)ccc1O` (stereo not given): the EC50 in assay [1] worked out at 30.7 µg/mL (≈ 79.5 µM); in assay [2], 44.3 µg/mL (≈ 115 µM).

`COc1cc(/C=C/C(O)=C/C(=O)/C=C/c2ccc(O)cc2)ccc1O` [DEMETHOXYCURCUMIN]: the EC50 turned out to be 4 µg/mL (≈ 11.8 µM) in assay [1] and 5 µg/mL (≈ 14.8 µM) in assay [2].

Consider `COc1cc(/C=C/C(=O)CC(=O)/C=C/c2ccc(O)c(OC)c2)ccc1O` [CURCUMIN], for which the EC50 in assay [1] was 7 µg/mL (≈ 19 µM); in assay [2], 10 µg/mL (≈ 27.1 µM).

For `O=C(/C=C/C=C/c1ccc(O)cc1)/C=C/c1ccc(O)cc1`, the EC50 in assay [1] and in assay [2] was over 50 µg/mL throughout.

In the case of `O=C(/C=C/c1ccc(O)cc1)CC(=O)/C=C/c1ccc(O)cc1` [BISDEMETHOXYCURCUMIN], the EC50 was 2 µg/mL (≈ 6.49 µM) in assay [1] and 3.5 µg/mL (≈ 11.4 µM) in assay [2].

In the case of `COc1cc(/C=C/C(=O)/C=C/c2ccc(O)c(OC)c2)ccc1O`, the EC50 in assay [1] and in assay [2] was over 50 µg/mL throughout.

Consider `COc1cc(/C=C/C(=O)COC(=O)/C=C/c2ccc(O)c(OC)c2)ccc1O` [CALEBI A], for which the EC50 in assay [1] was 1 µg/mL (≈ 2.6 µM); in assay [2] it was 2 µg/mL (≈ 5.2 µM).

Turning to `O=C(/C=C/c1ccc(O)cc1)CC(=O)CCc1ccc(O)cc1`, the EC50 was 0.5 µg/mL (≈ 1.61 µM) in assay [1] and 1 µg/mL (≈ 3.22 µM) in assay [2].

`Nc1c(/N=N/c2ccc(-c3ccc(/N=N/c4cc(S(=O)(=O)[O-])c5ccccc5c4N)cc3)cc2)cc(S(=O)(=O)[O-])c2ccccc12.[Na+].[Na+]` [CONGO RED]: the values for the EC50 in assay [1] and in assay [2] were 37.5 µg/mL and 39.2 µg/mL, respectively.

The values above are taken from ChEMBL document CHEMBL1150624, “Discovery of natural products from Curcuma longa that protect cells from beta-amyloid insult: a drug discovery effort against Alzheimer's disease” (2002).
